Data set [1] in a line: Cytotoxicity, MTT reduction assay, HELA cells. The class given is cell-based. The following applies: human. The method, then:
Namalwa cells (CXCR4 natively expressing non-adherent cells, ATCC CRL-1432) were cultured in RPMI1640 plus 10% FBS, and pen/strept. HELA cells were maintained in RPMI1640 plus 10% FBS, pen/strept and 2 mM L-glutamine. Cos-7 cells were grown in DMEM medium with […] glucose supplemented with 10% FCS, pen/strept and 2 mM L-glutamine. All cell lines were grown at 37° C. at 5% CO2. Cell media, media supplements, PBS-buffer, HEPES, antibiotic/antimycotic, pen/strept, non essential amino acid, L-glutamine, β-mercaptoethanol and sera were purchased from Gibco (Pailsey, UK). All fine chemicals were supplied by Merck (Darmstadt, Germany).
The cytotoxicity of the peptides to HELA cells (Acc57) and COS-7 cells (CRL-1651) was determined using the MTT reduction assay (T. Mossman, J. Immunol. Meth. 1983, 65, 55-63; M. V. Berridge, A. S. Tan, Arch. Biochem. Biophys. 1993, 303, 474-482). Briefly, the method was as follows: 4000 HELA cells/well and 3400 COS-7 cells/well were seeded and grown in 96-well microtiter plates for 24 h at 37° C. at 5% CO2. Thereafter, time zero (Tz) was determined by MTT reduction (see below). The supernatant of the remaining wells was discarded, and fresh medium and compounds in serial dilutions (12.5, 25 and 50 μM, triplicates; 0 μM, blank) were pipetted into the wells. After incubation of the cells for 48 h at 37° C. at 5% CO2 the supernatant was discarded again and 100 μL MTT reagent (0.5 mg/mL in RPMI1640 and DMEM, respectively)/well was added. Following incubation at 37° C. for 2-4 h the media were aspirated and the cells were spiked (100 μL isopropanol/well). The absorbance of the solubilized formazan was measured at 595 nm (OD595peptide). For each concentration averages were calculated from triplicates. The percentage of growth was calculated as follows: (OD595peptide−OD595Tz)/(OD595blank−OD595Tz)×100%. The GI50 (Growth Inhibition) concentrations were calculated for each peptide by using a trend line function for the concentrations (50, 25, 12.5 and 0 μM), the corresponding percentages and the value 50, (=TREND (C50:C0,%50:%0,50).
On the technique in general: Tetrazolium assays rely on reduction of a dye to a coloured formazan, in cell work by metabolically active cells.

Data set [2] in a line: Plasma stability, human plasma. It counts as in vitro ADME. The settings on record: 37° C., 1440 min, read-out: human pl. cpd left at 1440 min. The method, then: (§1) The stability of the peptides in human and mouse plasma was determined by applying the following method: 346.5 μL/deep well of freshly thawed human plasma (Basler Blutspende-dienst) and mouse plasma (Harlan Sera-Lab, UK), respectively, were spiked with 3.5 μL/well of compound dissolved in DMSO/H2O (90/10 [v/v], 1 mM, triplicate) and incubated at 37° C. At t=0, 15, 30, 60, 120, 240 and 1440 min aliquots of 50 μL were transferred to filtration plate wells containing 150 μL/well of 2% formic acid in acetonitrile. Following shaking for 2 min the occurred suspensions were filtrated by vacuum. 100 μL of each filtrate were transferred to a propylene microtiter plate and dried under N2. The residual solids were reconstituted by adding 100 μL/well of water/acetonitrile, 95/5 (v/v)+0.2% formic acid and analyzed by LC/MS as follows: Column: Waters, XBridge C18, mobile phases: (A) water+0.1% formic acid and (B) acetonitrile/water, 95/5 (v/v)+0.1% formic acid, gradient: 5%-100% (B) in 1.8 minutes, electrospray ionization, MRM detection (triple quadrupole). The peak areas were determined and triplicate values are averaged. The stability is expressed in percent of the initial value at t=0·(tx/t0×100). By using the TREND function of EXCEL (Microsoft Office 2003) T1/2 were determined.

The nature of data set [3]: Plasma stability, mouse plasma. It counts as in vitro ADME. The following applies: 37° C.; for remaining at 24 h / remaining at 24 h, 10 μM: 1440 min, read-out: mouse pl. cpd left at 1440 min; for mouse pl. T1/2: up to 1440 min. On the procedure:
as §1

Another data set can be described thus: Plasma protein binding. The settings on record: for fraction unbound: human, plasma; for fraction unbound at 1 h, 10 μM: human plasma. It counts as in vitro ADME. The method, then: 495 μL aliquots of human plasma (Basler Blutspendedienst) as well as 495 μL aliquots of PBS were placed in individual deepwells of a polypropylene plate (Greiner) and spiked each with 5 μL of 1 mM solutions of peptides in 90% DMSO. After shaking the plate for 2 min at 600 rpm 150 μL aliquots of the plasma/peptide mixtures were transferred in triplicates to the polypropylene filter plate (10 kDa, Millipore) whereas 150 μL aliquots of the PBS/peptide mixtures were transferred either to the individual wells of the filter plate (filtered controls) or directly into the individual wells of the receiving plate (Greiner) (non-filtered controls). The plate sandwich consisting of filter and receiving plate was incubated for 1 h at 37° C. and subsequently centrifuged at 3220 g for 2 h at 15° C. The filtrates in the receiving plate were analysed by LC/MS as follows: Column: Waters, XBridge C18, mobile phases: (A) water+0.1% formic acid and (B) acetonitrile/water, 95/5 (v/v)+0.1% formic acid, gradient: 5%-100% (B) in 1.8 min, electrospray ionization, MRM detection (triple quadrupole). The peak areas were determined and triplicate values are averaged. The binding is expressed in percent of the filtered and non-filtered controls by 100−(100×T1h/Tctr). Finally the average of these values is calculated.

[4] abbreviates: ultrafiltration 10 kDa, read-out: Plasma protein binding (converted).
[5] abbreviates: MTT, 48 h, up to 50 μM, read-out: Cytotoxicity Hela Cells GI50.

Like-named read-outs stand apart in the source and are kept apart here. Bridge positions count the residues as written; N and C are the ends. Square brackets hold non-standard residues; d marks the D form. Peptide text beside a SMILES is read from it. Lys(iPr) = CC(C)NCCCC[C@H](N)C(=O)O; Orn(iPr) = CC(C)NCCC[C@H](N)C(=O)O; Dab = NCC[C@H](N)C(=O)O

What is called GI50 is the concentration that inhibits growth by half. Consider `CC(C)NCCCC[C@@H]1NC(=O)[C@H](CCC(N)=O)NC(=O)[C@H](Cc2ccc(O)cc2)NC(=O)[C@@H]2CSSC[C@H](NC(=O)[C@H](Cc3ccc(O)cc3)NC(=O)[C@H](Cc3c[nH]cn3)NC(=O)[C@H](Cc3ccc(O)cc3)NC(=O)[C@@H]3CCCN3C(=O)[C@H]3CCCN3C1=O)C(=O)N[C@@H](CO)C(=O)N[C@@H](C)C(=O)N1CCC[C@@H]1C(=O)N[C@@H](CCCNC(C)C)C(=O)N[C@@H](CCCNC(=N)N)C(=O)N[C@@H](Cc1ccc(O)cc1)C(=O)N2` [Ex. 1, cyclo(-Tyr^1-His^2-Tyr^3-Cys^4-Ser^5-Ala^6-^DPro^7-Orn(iPr)^8-Arg^9-Tyr^10-Cys^11-Tyr^12-Gln^13-Lys(iPr)^14-^DPro^15-Pro^16-) disulfide bond between Cys^4 and Cys^11] (cyclo(YHYCSA[dP][Orn(iPr)]RYCYQ[Lys(iPr)][dP]P); disulfide 4-11), for which the GI50 at 48 h in data set [1] was greater than 50 µM. Moreover, the remaining at 24 h in data set [2] came out at 77%; in data set [3], 100%. Besides, in data set [3], the “mouse pl. T1/2” value turned out to be 24 h. Also, the fraction unbound in the data set “Plasma protein binding” (read-out: Fraction unbound, fu) is 0.7; in the data set “Plasma protein binding” (setting [4]), 0.7.

The compound `COc1ccc(C[C@@H]2NC(=O)[C@H](Cc3c[nH]cn3)NC(=O)[C@H](Cc3ccc(O)cc3)NC(=O)[C@@H]3CCCN3C(=O)[C@H]3CCCN3C(=O)[C@H](CCCCNC(C)C)NC(=O)[C@H](CCC(N)=O)NC(=O)[C@H](Cc3ccc(O)cc3)NC(=O)[C@@H]3CSSC[C@H](NC2=O)C(=O)N[C@@H](CO)C(=O)N[C@@H](C)C(=O)N2CCC[C@@H]2C(=O)N[C@@H](CCCNC(C)C)C(=O)N[C@@H](CCCNC(=N)N)C(=O)N[C@@H](Cc2ccc(O)cc2)C(=O)N3)cc1` [Ex. 2, cyclo(-Tyr^1-His^2-Tyr(Me)^3-Cys^4-Ser^5-Ala^6-^DPro^7-Orn(iPr)^8-Arg^9-Tyr^10-Cys^11-Tyr^12-Gln^13-Lys(iPr)^14-^DPro^15-Pro^16-), disulfide bond between Cys^4 and Cys^11] (cyclo(YHY(Me)CSA[dP][Orn(iPr)]RYCYQ[Lys(iPr)][dP]P); disulfide 4-11) displayed a GI50 at 48 h in data set [1] greater than 41 µM. Also, the remaining at 24 h in data set [2] and in data set [3] was 100% throughout. The “mouse pl. T1/2” value in data set [3] stood at 24 h. In addition, the fraction unbound in “Plasma protein binding” (read-out: Fraction unbound, fu) is 0.52; in “Plasma protein binding” (setting [4]), 0.52.

As to `CC(C)NCCCC[C@@H]1NC(=O)[C@H](CCC(N)=O)NC(=O)[C@H](Cc2ccc(O)cc2)NC(=O)[C@@H]2CSSC[C@H](NC(=O)[C@H](C)NC(=O)[C@H](Cc3c[nH]cn3)NC(=O)[C@H](Cc3ccc(O)cc3)NC(=O)[C@@H]3CCCN3C(=O)[C@H]3CCCN3C1=O)C(=O)N[C@@H](CO)C(=O)N[C@@H](C)C(=O)N[C@H](Cc1ccc(O)cc1)C(=O)N[C@@H](CCN)C(=O)N[C@@H](CCCNC(=N)N)C(=O)N[C@@H](Cc1ccc(O)cc1)C(=O)N2` [Ex. 3, cyclo(-Tyr^1-His^2-Ala^3-Cys^4-Ser^5-Ala^6-^DTyr^7-Dab^8-Arg^9-Tyr^10-Cys^11-Tyr^12-Gln^13-Lys(iPr)^14-^DPro^15-Pro^16-), disulfide bond between Cys^4 and Cys^11] (cyclo(YHACSA[dY][Dab]RYCYQ[Lys(iPr)][dP]P); disulfide 4-11), the GI50 at 48 h in data set [1] (setting [5]) was greater than 50 µM. Further, in data set [2], the remaining at 24 h, 10 μM was found to be 100%. Further, in data set [3], the remaining at 24 h, 10 μM turned out to be 98% and the “mouse pl. T1/2” value is 24 h. Besides, in the data set “Plasma protein binding” (ultrafiltration 10 kDa), the fraction unbound at 1 h, 10 μM is 0.52.

In data set [1], `COc1ccc(C[C@H]2NC(=O)[C@H](C)NC(=O)[C@H](CO)NC(=O)[C@@H]3CSSC[C@H](NC(=O)[C@H](Cc4ccc(O)cc4)NC(=O)[C@H](CCCNC(=N)N)NC(=O)[C@H](CCCNC(C)C)NC2=O)C(=O)N[C@@H](Cc2ccc(O)cc2)C(=O)N[C@@H](CCC(N)=O)C(=O)N[C@@H](CCCCNC(C)C)C(=O)N2CCC[C@@H]2C(=O)N2CCC[C@H]2C(=O)N[C@@H](Cc2ccc(O)cc2)C(=O)N[C@@H](Cc2c[nH]cn2)C(=O)N[C@@H](C)C(=O)N3)cc1` [Ex. 4, cyclo(-Tyr^1-His^2-Ala^3-Cys^4-Ser^5-Ala^6-^DTyr(Me)^7-Orn(iPr)^8-Arg^9-Tyr^10-Cys^11-Tyr^12-Gln^13-Lys(iPr)^14-^DPro^15-Pro^16-), disulfide bond between Cys^4 and Cys^11] (cyclo(YHACSA[dY](Me)[Orn(iPr)]RYCYQ[Lys(iPr)][dP]P); disulfide 4-11) showed a GI50 at 48 h greater than 50 µM. The remaining at 24 h in data set [2] stood at 94%; in data set [3], 60%. Moreover, in data set [3], the “mouse pl. T1/2” value came to 24 h. Besides, the fraction unbound in the data set “Plasma protein binding” (read-out: Fraction unbound, fu) was 0.44; in the data set “Plasma protein binding” (setting [4]) it was 0.44.

Regarding `CC(C)NCCCC[C@@H]1NC(=O)[C@H](CCC(N)=O)NC(=O)[C@H](Cc2ccc(O)cc2)NC(=O)[C@@H]2CSSC[C@H](NC(=O)[C@H](Cc3ccc(O)cc3)NC(=O)[C@H](Cc3c[nH]cn3)NC(=O)[C@H](Cc3ccc(O)cc3)NC(=O)[C@@H]3CCCN3C(=O)[C@H]3CCCN3C1=O)C(=O)N[C@@H](CO)C(=O)N[C@@H](C)C(=O)N[C@H](Cc1ccc(O)cc1)C(=O)N[C@@H](CCCNC(C)C)C(=O)N[C@@H](CCCNC(=N)N)C(=O)N[C@@H](Cc1ccc(O)cc1)C(=O)N2` [Ex. 5, cyclo(-Tyr^1-His^2-Tyr^3-Cys^4-Ser^5-Ala^6-^DTyr^7-Orn(iPr)^8-Arg^9-Tyr^10-Cys^11-Tyr^12-Gln^13-Lys(iPr)^14-^DPro^15-Pro^16-), disulfide bond between Cys^4 and Cys^11] (cyclo(YHYCSA[dY][Orn(iPr)]RYCYQ[Lys(iPr)][dP]P); disulfide 4-11), the GI50 at 48 h in data set [1] (setting [5]) was greater than 50 µM. Further, the remaining at 24 h, 10 μM in data set [2] came out at 92%; in data set [3] it was 81%. For the same compound, the “mouse pl. T1/2” value in data set [3] came to 24 h. In the data set “Plasma protein binding” (ultrafiltration 10 kDa), this compound gave a fraction unbound at 1 h, 10 μM of 0.46.

(Values after patent publication US9556231B2, “Beta-hairpin peptidomimetics as CXC4 antagonists” (POLYPHOR AG, priority 2011, dated 2017).)
